{
  "source": "paper PMC4856737",
  "about": "(Bioorganic & medicinal chemistry letters, 2016)",
  "key": {"[1]": {"tested_on": "M. Tb. H37Rv (ATCC 27294)", "assay": "M. Tb. H37Rv dose-response assay", "assay_type": "cell-based", "settings": "Mycobacterium tuberculosis, ATCC27294|H37RV"}, "[2]": {"tested_on": "M. Tb. H37Rv", "assay": "Minimum bactericidal concentration", "assay_type": "cell-based, Mycobacterium tuberculosis"}, "[3]": {"assay": "in vitro", "settings": "mouse, % of cellular viability, High conc"}},
  "data": [
    {"smiles": "Cc1c(C(=O)/C=C/c2ccccc2)[n+]([O-])c2cc(Cl)ccc2[n+]1[O-]", "note": "[Compound 3]", "values": [
      {"measurement": "IC50", "setting": "[1]", "value": "500 to 1500", "unit": "nM"}
    ]},
    {"smiles": "CC(=O)c1c(C(F)(F)F)nc2cc(F)c(N3CCSCC3)cc2[n+]1[O-]", "note": "[Compound 24]", "values": [
      {"measurement": "IC50", "setting": "[1]", "value": "500 to 1500", "unit": "nM"}
    ]},
    {"smiles": "COC(=O)c1c(C(F)(F)F)[n+]([O-])c2ccc(N3CCN(c4ccc(F)cc4)CC3)cc2[n+]1[O-]", "note": "[Compound 21]", "values": [
      {"measurement": "bactericidal classification", "setting": "[2]; ratio MBC/MIC ≤ 4", "value": "bactericidal"}
    ]},
    {"smiles": "O=C(c1ccco1)c1c(C(F)(F)F)[n+]([O-])c2cc(Cl)c(N3CCOCC3)cc2[n+]1[O-]", "note": "[Compound 16]", "values": [
      {"measurement": "IC50", "setting": "[1]", "value": "500 to 1500", "unit": "nM"},
      {"measurement": "MBC", "setting": "[2]; NA: colony counts above the established rejection value ≥ 40, TNTC: too numerous to count", "value": "TNTC"},
      {"measurement": "viability", "setting": "[3]", "value": 26, "unit": "%"}
    ]}
  ]
}
